Assay results taken from paper PMC8185074, “Anchor extension: a structure-guided approach to design cyclic peptides targeting enzyme active sites” (Nature Communications, 2021).
Peptide text beside a SMILES is read from it.

Assays:
HDAC3 = biological target: T1, HDAC3 (Homo sapiens, UniProt O15379); experiment: HDAC3 inhibition, full IC50 measurement (Reaction Biology; fluorogenic p53 peptide RHKK(Ac)AMC); type: biochemical
T1 construct: purchased Reaction Biology Corporation (assay run by the CRO)
T1 sequence (O15379 whole entry): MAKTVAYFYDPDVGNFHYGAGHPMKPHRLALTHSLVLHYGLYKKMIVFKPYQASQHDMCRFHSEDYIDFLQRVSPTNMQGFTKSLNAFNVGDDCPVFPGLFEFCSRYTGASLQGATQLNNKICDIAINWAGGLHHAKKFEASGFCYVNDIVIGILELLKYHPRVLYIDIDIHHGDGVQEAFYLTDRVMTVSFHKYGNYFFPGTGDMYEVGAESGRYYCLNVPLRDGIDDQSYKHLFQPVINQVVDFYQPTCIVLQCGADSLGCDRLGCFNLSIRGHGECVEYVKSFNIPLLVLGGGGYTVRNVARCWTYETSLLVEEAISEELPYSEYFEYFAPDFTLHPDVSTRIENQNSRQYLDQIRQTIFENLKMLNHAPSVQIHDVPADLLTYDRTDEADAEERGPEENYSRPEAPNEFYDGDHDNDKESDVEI
T1 sequence (Q9Y618 395-489 partner limits assumed): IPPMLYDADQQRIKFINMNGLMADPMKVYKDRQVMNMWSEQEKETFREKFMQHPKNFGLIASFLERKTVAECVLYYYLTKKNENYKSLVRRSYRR
In short: (§1)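 Test peptides were dispensed acoustically with enzyme in 50 mM Tris-HCl pH 8.0, 137 mM NaCl, 2.7 mM KCl, 1 mM MgCl2, 1 mg/ml BSA and 1% DMSO. After adding 50 μM RHKK(Ac)AMC, reactions ran 1 h at 30 °C, then developer was added.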

HDAC2 = biological target: T2, HDAC2 (Homo sapiens, UniProt Q92769); experiment: HDAC2 inhibition, full IC50 measurement (Reaction Biology; fluorogenic p53 peptide RHKK(Ac)AMC); type: biochemical
T2 construct: purchased Reaction Biology Corporation (assay run by the CRO)
T2 sequence (Q92769 whole entry): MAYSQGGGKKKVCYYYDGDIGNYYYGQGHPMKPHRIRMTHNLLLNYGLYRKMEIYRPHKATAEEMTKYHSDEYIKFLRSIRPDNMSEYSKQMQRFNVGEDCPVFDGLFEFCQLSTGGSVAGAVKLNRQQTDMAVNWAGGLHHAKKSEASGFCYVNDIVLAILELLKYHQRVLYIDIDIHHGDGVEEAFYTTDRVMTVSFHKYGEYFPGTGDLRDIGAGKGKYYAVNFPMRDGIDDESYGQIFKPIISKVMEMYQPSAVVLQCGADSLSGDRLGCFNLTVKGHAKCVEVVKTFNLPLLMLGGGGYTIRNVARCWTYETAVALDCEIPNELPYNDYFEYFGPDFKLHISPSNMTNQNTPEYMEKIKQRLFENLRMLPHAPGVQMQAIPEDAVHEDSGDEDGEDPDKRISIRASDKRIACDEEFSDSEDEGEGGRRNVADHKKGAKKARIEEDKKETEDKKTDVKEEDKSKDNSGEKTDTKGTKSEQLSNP
In short: as §1

For CSCC[C@H]1NC(=O)[C@@H](CO)NC(=O)[C@H](CC(N)=O)NC(=O)[C@H](CC(=O)O)NC(=O)[C@@H]([C@H](C)O)NC(=O)[C@H](Cc2c[nH]c3ccccc23)NC(=O)[C@H](CCCCCS)NC(=O)[C@H](CCCCN)NC(=O)[C@@H](CC(=O)O)NC1=O [des2.1.1, SHA-Trp-dThr-Asp-Asn-dSer-dMet-dAsp-Lys] (HELM PEPTIDE1{D.N.[dS].[dM].[dD].K.[O=C([C@H](CCCCCS)N[*:1])[*:2]].W.[dT]}$PEPTIDE1,PEPTIDE1,1:R1-9:R2$$$V2.0), the “HDAC3 activity raw data (signal)” value (HDAC3; Conc. 1.00E-05 M, t1) was 7144, the “HDAC3 activity raw data (signal)” value (HDAC3; Conc. 1.00E-05 M, t2) was 5841 and the “HDAC3 activity raw data (signal)” value (HDAC3; Conc. 1.11E-06 M, t1) was 51390. The “HDAC3 activity raw data (signal)” value (HDAC3; Conc. 1.11E-06 M, t2) was 54678, the “HDAC3 activity raw data (signal)” value (HDAC3; Conc. 1.23E-07 M, t1) was 246556 and the “HDAC3 activity raw data (signal)” value (HDAC3; Conc. 1.23E-07 M, t2) was 273031. For the same molecule, the “HDAC3 activity raw data (signal)” value (HDAC3; Conc. 1.37E-08 M, t1) was 687389, the “HDAC3 activity raw data (signal)” value (HDAC3; Conc. 1.37E-08 M, t2) was 738917 and the “HDAC3 activity raw data (signal)” value (HDAC3; Conc. 1.52E-09 M, t1) was 1292643. For the same molecule, the “HDAC3 activity raw data (signal)” value (HDAC3; Conc. 1.52E-09 M, t2) was 1253696, the “HDAC3 activity raw data (signal)” value (HDAC3; Conc. 3.33E-06 M, t1) was 22832 and the “HDAC3 activity raw data (signal)” value (HDAC3; Conc. 3.33E-06 M, t2) was 23560. The “HDAC3 activity raw data (signal)” value (HDAC3; Conc. 3.70E-07 M, t1) was 127387, the “HDAC3 activity raw data (signal)” value (HDAC3; Conc. 3.70E-07 M, t2) was 114572 and the “HDAC3 activity raw data (signal)” value (HDAC3; Conc. 4.12E-08 M, t1) was 487885. The “HDAC3 activity raw data (signal)” value (HDAC3; Conc. 4.12E-08 M, t2) was 457810, the “HDAC3 activity raw data (signal)” value (HDAC3; Conc. 4.57E-09 M, t1) was 1034207 and the “HDAC3 activity raw data (signal)” value (HDAC3; Conc. 4.57E-09 M, t2) was 1052923. For the same molecule, the “HDAC3 activity raw data (signal)” value (HDAC3; Conc. 5.08E-10 M, t1) was 1393662, the “HDAC3 activity raw data (signal)” value (HDAC3; Conc. 5.08E-10 M, t2) was 1455609 and the “HDAC2 activity raw data (signal)” value (HDAC2; Conc. 1.00E-05 M, t1) was -452. For the same molecule, the “HDAC2 activity raw data (signal)” value (HDAC2; Conc. 1.00E-05 M, t2) was -1036, the “HDAC2 activity raw data (signal)” value (HDAC2; Conc. 1.11E-06 M, t1) was 33890 and the “HDAC2 activity raw data (signal)” value (HDAC2; Conc. 1.11E-06 M, t2) was 38279. The “HDAC2 activity raw data (signal)” value (HDAC2; Conc. 1.23E-07 M, t1) was 186095, the “HDAC2 activity raw data (signal)” value (HDAC2; Conc. 1.23E-07 M, t2) was 182790 and the “HDAC2 activity raw data (signal)” value (HDAC2; Conc. 1.37E-08 M, t1) was 599694. The “HDAC2 activity raw data (signal)” value (HDAC2; Conc. 1.37E-08 M, t2) was 552663, the “HDAC2 activity raw data (signal)” value (HDAC2; Conc. 1.52E-09 M, t1) was 969892 and the “HDAC2 activity raw data (signal)” value (HDAC2; Conc. 1.52E-09 M, t2) was 886346. The “HDAC2 activity raw data (signal)” value (HDAC2; Conc. 3.33E-06 M, t1) was 19780, the “HDAC2 activity raw data (signal)” value (HDAC2; Conc. 3.33E-06 M, t2) was 13124 and the “HDAC2 activity raw data (signal)” value (HDAC2; Conc. 3.70E-07 M, t1) was 88233. The “HDAC2 activity raw data (signal)” value (HDAC2; Conc. 3.70E-07 M, t2) was 84596, the “HDAC2 activity raw data (signal)” value (HDAC2; Conc. 4.12E-08 M, t1) was 374430 and the “HDAC2 activity raw data (signal)” value (HDAC2; Conc. 4.12E-08 M, t2) was 356371. The “HDAC2 activity raw data (signal)” value (HDAC2; Conc. 4.57E-09 M, t1) was 827090, the “HDAC2 activity raw data (signal)” value (HDAC2; Conc. 4.57E-09 M, t2) was 782443 and the “HDAC2 activity raw data (signal)” value (HDAC2; Conc. 5.08E-10 M, t1) was 1119506. The “HDAC2 activity raw data (signal)” value (HDAC2; Conc. 5.08E-10 M, t2) was 1036443 and the IC50 (HDAC2; figure legends, Supp. Table 1, read-out: HDAC2 IC50) was 16.3 nM.
In the case of CC(C)C[C@H]1NC(=O)[C@H](Cc2c[nH]c3ccccc23)NC(=O)[C@H](CCCCCS)NC(=O)[C@@H](Cc2ccc(O)cc2)NC(=O)[C@@H](C(C)C)NC(=O)[C@H](Cc2c[nH]cn2)NC(=O)CNC(=O)CNC(=O)[C@@H](CO)NC1=O [des2.2.0, SHA-Trp-dLeu-dSer-Gly-Gly-His-dVal-dTyr] (HELM PEPTIDE1{G.G.H.[dV].[dY].[O=C([C@H](CCCCCS)N[*:1])[*:2]].W.[dL].[dS]}$PEPTIDE1,PEPTIDE1,1:R1-9:R2$$$V2.0), the “HDAC3 activity raw data (signal)” value (HDAC3; Conc. 1.00E-05 M, t1) is reported as 556301, the “HDAC3 activity raw data (signal)” value (HDAC3; Conc. 1.00E-05 M, t2) is reported as 606764 and the “HDAC3 activity raw data (signal)” value (HDAC3; Conc. 1.11E-06 M, t1) is reported as 913376. For the same molecule, the “HDAC3 activity raw data (signal)” value (HDAC3; Conc. 1.11E-06 M, t2) was 1016072, the “HDAC3 activity raw data (signal)” value (HDAC3; Conc. 1.23E-07 M, t1) was 993017 and the “HDAC3 activity raw data (signal)” value (HDAC3; Conc. 1.23E-07 M, t2) was 1391457. For the same molecule, the “HDAC3 activity raw data (signal)” value (HDAC3; Conc. 1.37E-08 M, t1) was 1020645, the “HDAC3 activity raw data (signal)” value (HDAC3; Conc. 1.37E-08 M, t2) was 1085089 and the “HDAC3 activity raw data (signal)” value (HDAC3; Conc. 1.52E-09 M, t1) was 1012899. The “HDAC3 activity raw data (signal)” value (HDAC3; Conc. 1.52E-09 M, t2) was 1059045, the “HDAC3 activity raw data (signal)” value (HDAC3; Conc. 3.33E-06 M, t1) was 841514 and the “HDAC3 activity raw data (signal)” value (HDAC3; Conc. 3.33E-06 M, t2) was 795799. For the same molecule, the “HDAC3 activity raw data (signal)” value (HDAC3; Conc. 3.70E-07 M, t1) was 980314, the “HDAC3 activity raw data (signal)” value (HDAC3; Conc. 3.70E-07 M, t2) was 1161998 and the “HDAC3 activity raw data (signal)” value (HDAC3; Conc. 4.12E-08 M, t1) was 1033280. The “HDAC3 activity raw data (signal)” value (HDAC3; Conc. 4.12E-08 M, t2) was 1094012, the “HDAC3 activity raw data (signal)” value (HDAC3; Conc. 4.57E-09 M, t1) was 1032533 and the “HDAC3 activity raw data (signal)” value (HDAC3; Conc. 4.57E-09 M, t2) was 1050723. For the same molecule, the “HDAC3 activity raw data (signal)” value (HDAC3; Conc. 5.08E-10 M, t1) was 965053, the “HDAC3 activity raw data (signal)” value (HDAC3; Conc. 5.08E-10 M, t2) was 1022182 and the “HDAC2 activity raw data (signal)” value (HDAC2; Conc. 1.00E-05 M, t1) was 686926. The “HDAC2 activity raw data (signal)” value (HDAC2; Conc. 1.00E-05 M, t2) was 755168, the “HDAC2 activity raw data (signal)” value (HDAC2; Conc. 1.11E-06 M, t1) was 808545 and the “HDAC2 activity raw data (signal)” value (HDAC2; Conc. 1.11E-06 M, t2) was 1100762. The “HDAC2 activity raw data (signal)” value (HDAC2; Conc. 1.23E-07 M, t1) was 837329, the “HDAC2 activity raw data (signal)” value (HDAC2; Conc. 1.23E-07 M, t2) was 1005687 and the “HDAC2 activity raw data (signal)” value (HDAC2; Conc. 1.37E-08 M, t1) was 715440. The “HDAC2 activity raw data (signal)” value (HDAC2; Conc. 1.37E-08 M, t2) was 821926, the “HDAC2 activity raw data (signal)” value (HDAC2; Conc. 1.52E-09 M, t1) was 554743 and the “HDAC2 activity raw data (signal)” value (HDAC2; Conc. 1.52E-09 M, t2) was 656599. The “HDAC2 activity raw data (signal)” value (HDAC2; Conc. 3.33E-06 M, t1) was 690169, the “HDAC2 activity raw data (signal)” value (HDAC2; Conc. 3.33E-06 M, t2) was 996724 and the “HDAC2 activity raw data (signal)” value (HDAC2; Conc. 3.70E-07 M, t1) was 822571. The “HDAC2 activity raw data (signal)” value (HDAC2; Conc. 3.70E-07 M, t2) was 1061380, the “HDAC2 activity raw data (signal)” value (HDAC2; Conc. 4.12E-08 M, t1) was 840443 and the “HDAC2 activity raw data (signal)” value (HDAC2; Conc. 4.12E-08 M, t2) was 955487. The “HDAC2 activity raw data (signal)” value (HDAC2; Conc. 4.57E-09 M, t1) was 679123, the “HDAC2 activity raw data (signal)” value (HDAC2; Conc. 4.57E-09 M, t2) was 728514 and the “HDAC2 activity raw data (signal)” value (HDAC2; Conc. 5.08E-10 M, t1) was 632244. For the same molecule, the “HDAC2 activity raw data (signal)” value (HDAC2; Conc. 5.08E-10 M, t2) was 668167.
